# From patent US9708312B2, “Dihydropyrimidinoisoquinolinones and pharmaceutical compositions thereof for the treatment of inflammatory disorders (GPR84 antagonists)” (GALAPAGOS NV, priority 2012, dated 2017)
# Assays:
# GPR84 [1] = target: T1, GPR84 (Homo sapiens, UniProt Q9NQS5); conditions: literature reports; cited from earlier work
# T1 construct: expressed in transfected cells
# [2] = test system: RAW264.7 murine macrophage-like cells; conditions: RAW264.7 cells stimulated with LPS; cited from earlier work
# human neutrophils = assay: Human neutrophil migration assay (embelin-induced chemotaxis); type: cell-based; conditions: Neutrophil; neutrophils from human buffy coats; embelin at EC80
# Procedure: 2.1. Human Neutrophil Migration Assay
# The effect of agonists or antagonists for GPR84 can therefore be assayed in a neutrophil migration test. In the neutrophil migration assay, neutrophils, freshly isolated from buffy coats from human volunteers, are treated with a compound for 30 min Subsequently, the neutrophils are transferred to the upper wells of a Corning HTS transwell 96 permeable support system, of which the lower wells are filled with a embelin solution at EC80 (concentration which gives 80% of the activity of GPR84). After 1 h of incubation, migration of the neutrophils towards embelin in the lower compartment can be quantified by measuring the ATP-content of the lower wells using the ATPlite luminescence ATP detection assay system (Perkin Elmer, Cat. No.: 436110).
# 2.1.1 Isolation of Neutrophils from Human Buffy Coat
# A human buffy coat is diluted with an equal volume of ice cold DPBS. 20 mL of the diluted buffy coat is gently mixed with 4 mL of ACD buffer (140 mM citric acid, 200 mM sodium citrate and 220 mM dextrose). Then, 12 mL of the 6% dextran/0.9% NaCl solution (15 g dextran T2000 and 2.25 g NaCl dissolved in 250 mL H2O) is added to the mixture and the samples are inverted gently up to 20 times. The total volume was transferred to a new recipient and incubated at room temperature for 1 h for complete separation of the two phases to occur. The yellowish supernatant is then transferred to a clean centrifugation tube and centrifuged for 12 min at 1300 rpm and 4° C. After centrifugation, the supernatant is discarded and the remaining cell pellet is rapidly resuspended in 12 mL of ice-cold H2O for red blood cell lysis to occur. After 20 seconds, 4 mL of ice-cold 0.6 M KCl is added. Samples are mixed carefully and centrifuged for 6 min at 1300 rpm, 4° C. The supernatant is discarded and the red blood cell lysis procedure is repeated one more time. Subsequently, the cell pellet is resuspended in 4 mL of DPBS and layered over 5 mL of Lymphoprep (Nycomed Pharma, Cat. No.: 1114545) in a 15 mL centrifuge tube. After centrifugation for 12 min at 1300 rpm, 4° C., the supernatant is removed and the cell pellet, containing the neutrophils, is resuspended in 25 mL chemotaxis buffer (RPMI 1640 medium, supplemented with 10 mM HEPES; freshly made for each experiment)
# A cell suspension of 8.9×10^6 cells per milliliter is prepared. 20 μL of compound solution in chemotaxis buffer is added to 180 μL cell suspension. The mixture is incubated at 37° C. for 30 min with intermediate resuspension of the cells after 15 min Following this, 70 μL cell suspension is transferred to the upper compartment of a Corning HTS transwell 96 permeable support system with 5.0 μm pore size polycarbonate membrane (Corning, Cat. No.: 3387). The receiver well of the transwell system is then filled with 200 μL chemotaxis buffer containing compound and chemotactic agent (embelin). After incubation at 37° C. in 5% CO2 for 1 h, the upper plate of the transwell system is removed and the cell suspension in the receiver plate is transferred to a 96-well V-bottom plate. 50 μL of DPBS is added to the receiver plate to prevent remaining cells from drying out. The V-bottom plate is centrifuged for 6 min at 1500 rpm. The supernatant is removed and the cells are resuspended in 50 μL DPBS. The cells are then transferred back to the receiver plate of the transwell system. After this, 100 μL ATPlite solution (Perkin Elmer, Cat. No: 436110) was added to the cells. The plate is incubated for 10 min in the dark, while shaking. […] of cell lysate is then transferred to a white 96-well plate and luminescence is measured. The detected luminescent signal is considered as linearely related to the number of cells having migrated from the upper well to the receiver well.
# GPR84 [3] = target: T1, GPR84; assay: GPR84 [35S]GTPγS binding assay, Tris buffer (alternative); type: biochemical; conditions: 3,3′ di indolylmethane at EC80, membranes from stable cell line over expressing GPR84, read-out: Alternative GPR84 assay GTPγS IC50 (GPR84-2)
# Procedure: 1.1. Cell Based Assay: GTp-γ S Binding Assay.
# The following assay can be used for determination of GPR84 activation. The [^35S]GTPγS binding assay measures the level of G protein activation following agonist occupation of a GPCR, by determining the binding of the non-hydrolysable analog [^35S]GTPγS to Gα subunits.
# Alternatively, the assay is performed in a 96 well plate where the following reagents are added. First 50 μL compound is added into the assay plate, followed by addition of 20 μL 3,3′ di indolylmethane at EC80 concentration (concentration which gives 80% of the activity of GPR84). In a last step, 30 μL of a mixture consisting of membranes-GTPγS-SpA beads is added [mixture consists of 20 μg/well membranes derived from stable cell line over expressing GPR84 (membranes are pre-incubated with 0.1 μM GDP for 15 min at 4° C.), 0.1 nM [^35S]GTPγS (Perkin Elmer, NEG030) and 0.5 mg/well PVT-WGA SpA beads (Perkin Elmer, RPNQ0001)]. All components are diluted in assay buffer containing 20 mM Tris pH 7.5; 5 mM MgCl2; 250 mM NaCl; 0.05% BSA; 75 ug/mL saponin Reactions are incubated for 90 min at room temperature followed by centrifugation at 2000 rpm during 15 min. Plates are read on a Topcount reader (Perkin Elmer) immediately after centrifugation (readout time, 1 min/well).
# T1 sequence (Q9NQS5 whole entry): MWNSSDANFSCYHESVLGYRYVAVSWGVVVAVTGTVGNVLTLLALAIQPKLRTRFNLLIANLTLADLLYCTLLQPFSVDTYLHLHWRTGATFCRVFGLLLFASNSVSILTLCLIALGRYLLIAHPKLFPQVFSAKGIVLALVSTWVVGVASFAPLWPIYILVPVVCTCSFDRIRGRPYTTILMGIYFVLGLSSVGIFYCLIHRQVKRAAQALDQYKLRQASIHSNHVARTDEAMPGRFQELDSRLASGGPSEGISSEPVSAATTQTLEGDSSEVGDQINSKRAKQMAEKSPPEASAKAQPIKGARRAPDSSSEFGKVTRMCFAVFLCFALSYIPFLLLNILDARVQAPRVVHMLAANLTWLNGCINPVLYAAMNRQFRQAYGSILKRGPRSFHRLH
SMILES,GPR84 agonist activity (GPR84 [1]),secretion of interleukin-12 p40 subunit (IL-12 p40) [2],IC50 (human neutrophils),IC50 (GPR84 [3])
"c1ccc2c(Cc3c[nH]c4ccccc34)c[nH]c2c1 [3,3′-diindolylmethane]",some GPR84 agonist activity,,,
CCCCCCCCNc1cc(=O)[nH]c(=O)[nH]1 [6-n-octylaminouracil],some GPR84 agonist activity,,,
CCCCCCCCCC(=O)O [capric acid],,dose dependently increased,,
"N#Cc1ccccc1-c1ccc2c(c1)CCn1c-2cc(OCC2COc3ncccc3O2)nc1=O (stereo not shown) [compound 125, 2-[2-(2,3-Dihydro-[1,4]dioxino[2,3-b]pyridin-2-ylmethoxy)-4-oxo-6,7-dihydro-4H-pyrimido[6,1-a]isoquinolin-9-yl]-benzonitrile]",,,0.01 to 100 nM,100 to 500 nM
"O=c1nc(OCC2COc3ncccc3O2)cc2n1CCc1cc(C#Cc3cccnc3)ccc1-2 (stereo not shown) [compound 131, 2-(2,3-dihydro-[1,4]dioxino[2,3-b]pyridin-2-ylmethoxy)-9-pyridin-3-ylethynyl-6,7-dihydro-pyrimido[6,1-a]isoquinolin-4-one]",,,0.01 to 100 nM,100 to 500 nM
"COCC#Cc1ccc2c(c1)CCn1c-2cc(OCC2COc3ncccc3O2)nc1=O (stereo not shown) [compound 132, 2-(2,3-dihydro-[1,4]dioxino[2,3-b]pyridin-2-ylmethoxy)-9-(3-methoxy-prop-1-ynyl)-6,7-dihydro-pyrimido[6,1-a]isoquinolin-4-one]",,,0.01 to 100 nM,100 to 500 nM
"Cc1cc(COc2ccc3c(c2)CCn2c-3cc(OCC3COc4ncccc4O3)nc2=O)nn1C (stereo not shown) [compound 134, 2-(2,3-Dihydro-[1,4]dioxino[2,3-b]pyridin-2-ylmethoxy)-9-(1,5-dimethyl-1H-pyrazol-3-ylmethoxy)-6,7-dihydro-pyrimido[6,1-a]isoquinolin-4-one]",,,0.01 to 100 nM,0.01 to 100 nM
"O=c1nc(OCC2COc3ncccc3O2)cc2n1CCc1cc(C#Cc3ccncc3)ccc1-2 (stereo not shown) [compound 137, 2-(2,3-dihydro-[1,4]dioxino[2,3-b]pyridin-2-ylmethoxy)-9-pyridin-4-ylethynyl-6,7-dihydro-pyrimido[6,1-a]isoquinolin-4-one]",,,0.01 to 100 nM,0.01 to 100 nM
"Cc1ccc(-c2ccc3c(c2)CCn2c-3cc(OCC3COc4ncccc4O3)nc2=O)cn1 (stereo not shown) [compound 139, 2-(2,3-dihydro-[1,4]dioxino[2,3-b]pyridin-2-ylmethoxy)-9-(6-methyl-pyridin-3-yl)-6,7-dihydro-pyrimido[6,1-a]isoquinolin-4-one]",,,0.01 to 100 nM,0.01 to 100 nM
"O=c1nc(OCC2COc3ncccc3O2)cc2n1CCc1cc(C#CC3(O)CCCC3)ccc1-2 (stereo not shown) [compound 142, 2-(2,3-Dihydro-[1,4]dioxino[2,3-b]pyridin-2-ylmethoxy)-9-(1-hydroxy-cyclopentylethynyl)-6,7-dihydro-pyrimido[6,1-a]isoquinolin-4-one]",,,0.01 to 100 nM,0.01 to 100 nM
CCCCCCCCCCCC(=O)O [lauric acid],,dose dependently increased,,
CCCCCCCCCCC(=O)O [undecanoic acid],,dose dependently increased,,
